Laboratory results as given in patent US20240400555A1 (Initial Therapeutics, Inc., priority 2023, published 2024).

What follows are compounds tested on HCT-116 Firefly-luciferase reporter cells (assay: Cellular c-MYC Reporter Assay). Settings: Homo sapiens, HCT-116, 24 h, read-out: pIC50 (converted).
Type: cell-based
In short: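 Reporter cells seeded at 5e4 cells/mL in McCoy's 5A with 10% FBS and G418, dosed after 4–6 h at 0.2% final DMSO. After 24 h at 37 °C, luciferase luminescence was read with ONE-Glo.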

| SMILES | IC50 [nM] |
| --- | --- |
| Cc1cccc2ccnc(N(C(=O)c3ccc(-n4nnc5cccnc54)cc3)[C@H]3CCCNCC3)c12 [Example 228, (S)-4-(3H-[1,2,3]triazolo[4,5-b]pyridin-3-yl)-N-(azepan-4-yl)-N-(8-methylisoquinolin-1-yl)benzamide] | > 20000 |

Same assay, conditions: Homo sapiens; untitled table following Table 8a; HCT-116 Firefly-luciferase reporter cells, 24 h; read-out: pIC50 (converted)

| SMILES | IC50 [nM] |
| --- | --- |
| Cc1cccc2ccnc(N(C(=O)c3ccc(-n4nnc5cccnc54)cc3)[C@@H]3CCNC3)c12 [Example 232, (R)-4-(3H-[1,2,3]triazolo[4,5-b]pyridin-3-yl)-N-(8-methylisoquinolin-1-yl)-N-(pyrrolidin-3-yl)benzamide] | 8510 |
| Cc1cccc2ccnc(N(C(=O)N3CCC(Oc4ccccc4)CC3)[C@@H]3CCCNC3)c12 [Example 189, (R)—N-(8-methylisoquinolin-1-yl)-4-phenoxy-N-(piperidin-3-yl)-1-carboxamide] | 5620 |
| O=C(c1ccc(-n2nnc3cccnc32)cc1F)N(c1nccc2sc(-c3cn[nH]c3)cc12)[C@@H]1CCCNC1 [Example 160, (R)—N-(2-(1H-pyrazol-4-yl)thieno[3,2-c]pyridin-4-yl)-4-(3H-[1,2,3]triazolo[4,5-b]pyridin-3-yl)-2-fluoro-N-(piperidin-3-yl)benzamide] | 447 |
| Cc1cccc2ccnc(N(C(=O)N3CCC(n4ncc5ccccc54)CC3)[C@@H]3CCCNC3)c12 [Example 266, (R)-4-(1H-indazol-1-yl)-N-(8-methylisoquinolin-1-yl)-N-(piperidin-3-yl)piperidine-1-carboxamide] | 2950 |
| Cc1cccc2ccnc(N(C(=O)c3ccc(-c4nnn(C)n4)cc3F)[C@@H]3CCCNC3)c12 [Example 125, (R)-2-fluoro-4-(2-methyl-2H-tetrazol-5-yl)-N-(8-methylisoquinolin-1-yl)-N-(piperidin-3-yl) benzamide] | 24.5 |
| O=C(c1ccc(-n2nnc3cccnc32)cc1F)N(c1nccc2sc(-c3ccncc3)cc12)[C@@H]1CCCNC1 [Example 161, (R)-4-(3H-[1,2,3]triazolo[4,5-b]pyridin-3-yl)-2-fluoro-N-(piperidin-3-yl)-N-(2-(pyridin-4-yl)thieno[3,2-c]pyridin-4-yl)benzamide] | 417 |
| Cc1cccc2ccnc(N(C(=O)N3CCC(c4nc(-c5ccccc5)no4)CC3)[C@@H]3CCCNC3)c12 [Example 263] | 1260 |
| O=C(c1ccc(-n2nnc3cccnc32)cc1F)N(c1ncccc1/C=C/CCO)[C@@H]1CCCNC1 [Example 104, 2-fluoro-N-[3-[(E)-4-hydroxybut-1-enyl]-2-pyridyl]-N-[(3R)-3-piperidyl]-4-(triazolo[4,5-b]pyridin-3-yl)benzamide] | 8910 |
| O=C(O)/C=C/c1ccc2ccnc(N(C(=O)c3ccc(-n4nnc5cccnc54)cc3F)[C@@H]3CCCNC3)c2c1 [Example 295, (R,E)-3-(1-(4-(3H-[1,2,3]triazolo[4,5-b]pyridin-3-yl)-2-fluoro-N-(piperidin-3-yl)benzamido)isoquinolin-7-yl)acrylic acid] | > 20000 |
| O=C(c1ccc(-n2nnc3cccnc32)cc1F)N(c1nccc2cccc(/C=C/CCO)c12)[C@@H]1CCCNC1 [Example 166, (R,E)-4-(3H-[1,2,3]triazolo[4,5-b]pyridin-3-yl)-2-fluoro-N-(8-(4-hydroxybut-1-en-1-yl)isoquinolin-1-yl)-N-(piperidin-3-yl)benzamide] | 141 |
| O=C(c1ccc(-n2nnc3cccnc32)cc1F)N(c1ncccc1/C=C/CO)[C@@H]1CCCNC1 [Example 289, (R,E)-4-(3H-[1,2,3]triazolo[4,5-b]pyridin-3-yl)-2-fluoro-N-(3-(3-hydroxyprop-1-en-1-yl)pyridin-2-yl)-N-(piperidin-3-yl)benzamide] | > 5890 |
| O=C(c1ncc(-n2nnc3cccnc32)cc1F)N(c1nccc2cccc(Cl)c12)[C@@H]1CCCNC1 [Example 200, (R)-5-(3H-[1,2,3]triazolo[4,5-b]pyridin-3-yl)-N-(8-chloroisoquinolin-1-yl)-3-fluoro-N-(piperidin-3-yl)picolinamide] | 77.6 |
| Cc1cccc2ccnc(N(C(=O)c3ccc(Nc4cccc(=O)[nH]4)cc3F)[C@@H]3CCCNC3)c12 [Example 292, (R)-2-fluoro-N-(8-methylisoquinolin-1-yl)-4-((6-oxo-1,6-dihydropyridin-2-yl)amino)-N-(piperidin-3-yl)benzamide] | > 20000 |
| Cc1ccnc(N(C(=O)c2ccc(-n3nnc4cccnc43)cc2F)[C@@H]2CCCNC2)c1Cl [Example 284, (R)-4-(3H-[1,2,3]triazolo[4,5-b]pyridin-3-yl)-N-(3-chloro-4-methylpyridin-2-yl)-2-fluoro-N-(piperidin-3-yl)benzamide] | 1200 |
| Cc1cncc(-c2ccc(C(=O)N(c3nccc4cccc(C)c34)[C@@H]3CCCNC3)c(F)c2)n1 [Example 202, (R)-2-fluoro-N-(8-methylisoquinolin-1-yl)-4-(6-methylpyrazin-2-yl)-N-(piperidin-3-yl)benzamide] | 372 |
| NC(=O)c1ccc2ccnc(N(C(=O)c3ccc(-n4nnc5cccnc54)cc3F)[C@@H]3CCCNC3)c2c1 [Example 155, (R)-1-(4-(3H-[1,2,3]triazolo[4,5-b]pyridin-3-yl)-2-fluoro-N-(piperidin-3-yl)benzamido)isoquinoline-7-carboxamide] | 5750 |

| SMILES | IC50 [nM] |
| --- | --- |
| COc1ccc2c(N(C(=O)c3ccc(-n4nnc5cccnc54)cc3F)[C@@H]3CCCNC3)nccc2c1 [Example 145, (R)-4-(3H-[1,2,3]triazolo[4,5-b]pyridin-3-yl)-2-fluoro-N-(6-methoxyisoquinolin-1-yl)-N-(piperidin-3-yl)benzamide] | 525 |
| Cc1cccc2ccnc(N(C(=O)N3CC=C(c4ccccc4)CC3)[C@@H]3CCCNC3)c12 [Example 287, (R)—N-(8-methylisoquinolin-1-yl)-4-phenyl-N-(piperidin-3-yl)-3,6-dihydropyridine-1(2H)-carboxamide] | 5890 |
| Cc1nccnc1-c1ccc(C(=O)N(c2nccc3cccc(C)c23)[C@@H]2CCCNC2)c(F)c1 [Example 203, (R)-2-fluoro-N-(8-methylisoquinolin-1-yl)-4-(3-methylpyrazin-2-yl)-N-(piperidin-3-yl)benzamide] | 129 |
| Cc1cccc2ccnc(N(C(=O)c3ccc(N4CCOCC4)cc3)[C@@H]3CCCNC3)c12 [Example 219, (R)—N-(8-methylisoquinolin-1-yl)-4-morpholino-N-(piperidin-3-yl)benzamide] | 6310 |
| O=C(c1ccc(-n2nnc3cccnc32)cc1F)N(c1ncccc1-c1cn[nH]c1)[C@@H]1CCCNC1 [Example 176, (R)—N-(3-(1H-pyrazol-4-yl)pyridin-2-yl)-4-(3H-[1,2,3]triazolo[4,5-b]pyridin-3-yl)-2-fluoro-N-(piperidin-3-yl)benzamide] | 933 |
| O=C(c1ccc(-n2nnc3cccnc32)cc1F)N(c1nccc2ccc(CCCO)cc12)[C@@H]1CCCNC1 [Example 134, (R)-4-(3H-[1,2,3]triazolo[4,5-b]pyridin-3-yl)-2-fluoro-N-(7-(3 hydroxypropyl)isoquinolin-1-yl)-N-(piperidin-3-yl)benzamide] | 575 |
| O=C(c1ccc(-n2nnc3cccnc32)cc1F)N(c1nccc2cc(-c3cn[nH]c3)ccc12)[C@@H]1CCCNC1 [Example 106, (R)—N-(6-(1H-pyrazol-4-yl)isoquinolin-1-yl)-4-(3H-[1,2,3]triazolo[4,5-b]pyridin-3-yl)-2-fluoro-N-(piperidin-3-yl)benzamide] | 537 |
| O=C(c1ccc(-n2nnc3cccnc32)cc1F)N(c1nccc2sc(C3=CCNCC3)cc12)[C@@H]1CCCNC1 [Example 159, (R)-4-(3H-[1,2,3]triazolo[4,5-b]pyridin-3-yl)-2-fluoro-N-(piperidin-3-yl)-N-(2-(1,2,3,6-tetrahydropyridin-4-yl)thieno[3,2-c]pyridin-4-yl)benzamide] | 2630 |
| Cc1cccc2ccnc(N(C(=O)c3ccc(-c4onc5ccccc45)cc3F)[C@@H]3CCCNC3)c12 [Example 196, (R)-4-(benzo[c]isoxazol-3-yl)-2-fluoro-N-(8-methylisoquinolin-1-yl)-N-(piperidin-3-yl)benzamide] | > 20000 |
| Cc1cccc2ccnc(N(C(=O)N3CCCCC3c3nc4ccccc4s3)[C@@H]3CCCNC3)c12 (stereo partly drawn) [Example 259, 2-(benzo[d]thiazol-2-yl)-N-(8-methylisoquinolin-1-yl)-N—((R)-piperidin-3-yl)piperidine-1-carboxamide] | 8320 |
| O=C(c1ccc(-n2nnc3cccnc32)cc1F)N(c1nccc2ccc(/C=C/CO)cc12)[C@@H]1CCCNC1 [Example 135, (R)-4-(3H-[1,2,3]triazolo[4,5-b]pyridin-3-yl)-2-fluoro-N-(7-(3-hydroxyprop-1-en-1-yl)isoquinolin-1-yl)-N-(piperidin-3-yl)benzamide] | 575 |
| Cc1cccc2ccnc(N(C(=O)c3ccc(-n4nnc(C(C)Cl)n4)cc3F)[C@@H]3CCCNC3)c12 (stereo partly drawn) [Example 298, 4-(5-(1-chloroethyl)-2H-tetrazol-2-yl)-2-fluoro-N-(8-methylisoquinolin-1-yl)-N—((R)-piperidin-3-yl) benzamide] | 263 |
| Cc1cccc2ccnc(N(C(=O)N3CCC(c4cc(C(F)F)no4)CC3)[C@@H]3CCCNC3)c12 [Example 250, (R)-4-(3-(difluoromethyl)isoxazol-5-yl)-N-(8-methylisoquinolin-1-yl)-N-(piperidin-3-yl)piperidine-1-carboxamide] | 813 |
| Cc1ccc2nnn(-c3ccc(C(=O)N(c4nccc5ccn(C)c45)[C@@H]4CCCNC4)c(F)c3)c2n1 [Example 209, (R)-2-fluoro-N-(1-methyl-1H-pyrrolo[2,3-c]pyridin-7-yl)-4-(5-methyl-3H-[1,2,3]triazolo[4,5-b]pyridin-3-yl)-N-(piperidin-3-yl)benzamide] | 141 |
| Cc1cccc2ccnc(N(C(=O)c3ccc(Nc4ncccn4)cc3F)[C@@H]3CCCCNC3)c12 [Example 185, (R)—N-(azepan-3-yl)-2-fluoro-N-(8-methylisoquinolin-1-yl)-4-(pyrimidin-2-ylamino)benzamide] | 3310 |
